Assay results published in PMC8264131 (Frontiers in Pharmacology, 2021).
Like-named read-outs stand apart in the source and are kept apart here. Each block holds one compound with its values, some of them ahead of it.

What was measured:
[1] = bovine blood in vitro hemodialysis model: hemofilter clearance; type: in vitro ADME; conditions: for Cl, in vitro clearance rate: ultrafiltration 0 ml/min, 37°C, corrected by hematocrit
Procedure: Hemodialysis was simulated using a Fresenius 4008H dialysis machine. After priming of the extracorporeal circuit including the dialysis membrane with 0.9% saline solution, a reservoir bag containing 2 L of 37°C warm heparinized bovine blood (provided in cooperation with the University of Veterinary Medicine Vienna after seeking authorization by the institutional and governmental ethics committee, (ZI.04/04/972,013, GZ: 68.205/0240-WF/V/3b/2016) was connected to the circuit. The blood was kept at 37°C throughout the experiment. It was mixed with 2,000 IU of low molecular weight heparin directly during the blood draw as well as during the experiment itself with a rate of 500 IU per hour. After circuit connection, the investigated drug was added to the reservoir in order to mimic plasma levels previously described in trials ([Lanese et al., 1989]; [Thalhammer et al., 1997]; [Amin et al., 1999]). […] After priming the system with blood, it was allowed to run for 30 s to allow equilibration of blood hematocrit throughout the extracorporeal circuit before the baseline sample was drawn. Due to the reduced volume compared to in vivo and the comparably large hemofilter membrane area, a considerably faster drug concentration decline was expected. Thus, pre filter, post filter and ultrafiltrate samples were collected at the end of minutes 1, 5, 10, 15, 20, 30, 40 and 60 of the run. All samples were plasma separated by centrifugation at 2000 ×vg for 7 min and the supernatant stored at −80°C for analysis.
An actual blood flow rate of 300 ml/min and a dialysate flow rate of 500 ml/min were kept as standard flow rates. Depending on previous literature, single drugs were run at different flow rates to allow external validation of the model. Ultrafiltration (corresponding to negative fluid balance/water removal during hemodialysis) was kept at 0 ml/min. […] Hemodialysation and hemofiltration experiments were performed with Baxter Gambro CAHP 170 diacetate devices, Nipro Sureflux 17UX and 21UX triacetate membranes as well as Fresenius Hemoflow F80s and FX 80 polysulphone membranes.
The measured drug plasma concentrations were analyzed to calculate the area under the curve, hemofilter clearance and the drug saturation coefficient. As removal within the hemofilter is expected to be too fast for equilibration of drugs out of the erythrocyte compartment and drug concentrations were measured in the plasma, all clearance values were calculated with a hematocrit corrected formula, in which Hc is the blood hematocrit in percent divided by 100, BFR the actual blood flow rate, Cpre the drug concentration measured before the blood enters the filter and Cpost the drug concentration measured after the filter. Additionally the formula allows for correction of blood concentration by ultrafiltration (UFR). (1−Hc)×BFR×Cpre−(Cpost(BFR−UFR))/BFR/[…]
Hematocrit corrected and not corrected clearance, total “body” clearance, volume of distribution, area under curve, elimination coefficient and half-life were evaluated for their correspondence to previously published in vivo values. Whenever previous publications declared the method of clearance calculation, the same formula was used. […] An empirical fitting of the in vitro PK curves and available in vivo PK curves was performed to gain an insight into the time relation between in vitro and in vivo.
More recent historic data on intradialytic gentamicin clearance only exists for the Baxter CAHP-210 membrane ([Sowinski et al., 2008]) and the Fresenius F80s ([Amin et al., 1999]) which are both not available anymore. Baxter however was kind enough to supply us with several CAHP-170 and […] models. To extrapolate assumed clearance of a CAHP-210, we compared clearance gains between a Nipro Sureflux 17UX and a Sureflux 21UX membrane.

[2] = plasma protein binding in bovine plasma (ultrafiltration); conditions: bovine plasma from two cows, 2000 x g
[3] = cited from earlier work
[4] = cited from earlier work; remark: listed apart in the source
Source text: TABLE 2 Comparison of in vitro and in vivo clearance values.

[5] = earlier publications, slightly higher bound fraction, (±3.0); ref PMC, 1972; cited from earlier work
[6] = membrane Fx80 (Fresenius high flux polysulphone, 1.8 m^2), BFR 300 ml/min, DFR 500 ml/min, bovine blood, mean, N = 12

Compound: CNC(C)C1CCC(N)C(OC2C(N)CC(N)C(OC3OCC(C)(O)C(NC)C3O)C2O)O1 (centres unmarked) [Gentamicin, gentamicin]
- Cl, in vitro clearance rate ([1]; membrane CAHP-170 (Baxter cellulose diacetate, 1.7 m^2), BFR 400 ml/min, DFR 800 ml/min, bovine blood, mean, N = 16): 90.12 mL/min
- Cl, in vitro clearance rate ([1]; membrane F80s (Fresenius high flux polysulphone, 1.8 m^2), BFR 300 ml/min, DFR 500 ml/min, bovine blood, mean, N = 12): 122.37 mL/min
- Cl, in vitro clearance rate ([1]; membrane F80s (Fresenius high flux polysulphone, 1.8 m^2), BFR 400 ml/min, DFR 800 ml/min, bovine blood, mean, N = 12): 137.62 mL/min
- Cl, in vitro clearance rate [1, 6]: 142.13 mL/min
- Cl, in vitro clearance rate ([1]; membrane Fx80 (Fresenius high flux polysulphone, 1.8 m^2), BFR 400 ml/min, DFR 800 ml/min, bovine blood, mean, N = 12): 187.90 mL/min
- Cl, in vitro clearance rate ([1]; membrane SF17UX (Nipro cellulose triacetate, 1.7 m^2), BFR 400 ml/min, DFR 800 ml/min, bovine blood, mean, N = 12): 160.75 mL/min
- Cl, in vitro clearance rate ([1]; membrane SF21E (Nipro Sureflux-21E medium-flux cellulose triacetate, 2.1 m^2), BFR 400 ml/min, DFR 800 ml/min, 2 L heparinized bovine blood, mean, N = 12): 131.52 mL/min
- Cl, in vitro clearance rate ([1]; membrane SF21UX (Nipro cellulose triacetate, 2.1 m^2), BFR 400 ml/min, DFR 800 ml/min, bovine blood, mean, N = 17): 178.25 mL/min

- Cl, in vitro clearance rate [1, 6]: 141.25 mL/min
- Cl, in vitro clearance rate ([1]; membrane SF21UX (Nipro cellulose triacetate, 2.1 m^2), BFR 300 ml/min, DFR 500 ml/min, bovine blood, mean, N = 12): 155.76 mL/min
- plasma protein binding, Bovine ([2]; Centrisart I devices, 20 min, room temperature, HPLC): 9.7%
Compound: C[C@@H](O)[C@H]1C(=O)N2C(C(=O)O)=C(S[C@@H]3CN[C@H](CNS(N)(=O)=O)C3)[C@H](C)[C@H]12 [Doripenem, doripenem]
- plasma protein binding, Human [3]: 8.0%
- Clin vivo, clearance as described in referenced publication ([4]; human, in vivo): 148.61 mL/min

- Cl, in vitro clearance rate ([1]; membrane F60s (Fresenius polysulphone), BFR 250 ml/min, DFR 500 ml/min, bovine blood, mean, N = 16): 25.50 mL/min
- Clin vitro, non hematocrit corrected clearance ([1]; membrane F60s, bovine blood in vitro hemodialysis, non hematocrit corrected, mean): 38.95 mL/min
- Cl, in vitro clearance rate ([1]; membrane Fx80 (Fresenius polysulphone), BFR 250 ml/min, DFR 500 ml/min, bovine blood, mean, N = 12): 43.49 mL/min
- clearance, simulation with Sureflux SF 21E triacetate dialyzer ([1]; membrane Sureflux SF 21E triacetate, bovine blood in vitro hemodialysis, flow rates not given): 17.6 mL/min
Compound: teicoplanin
- Clin vivo, non-hematocrit corrected clearance ([4]; human, in vivo): 39.70 mL/min

Compound: CN[C@H](CC(C)C)C(=O)N[C@H]1C(=O)N[C@@H](CC(N)=O)C(=O)N[C@H]2C(=O)N[C@H]3C(=O)N[C@H](C(=O)N[C@H](C(=O)O)c4cc(O)cc(O)c4-c4cc3ccc4O)[C@H](O)c3ccc(c(Cl)c3)Oc3cc2cc(c3O[C@@H]2O[C@H](CO)[C@@H](O)[C@H](O)[C@H]2O[C@H]2C[C@](C)(N)[C@H](O)[C@H](C)O2)Oc2ccc(cc2Cl)[C@H]1O [Vancomycin, vancomycin]
- bound fraction [5]: 54.8%
- plasma protein binding, Bovine ([2]; Millipore Centrefree device, 1 ml aliquot, 10 min, Cobas VANC3 assay): 43.6%
- plasma protein binding, Human ([3]; previously published value, ref Butterfield et al. (2011)): 41.5%
- Clin vivo, clearance as described in referenced publication ([4]; hemodialysis patients, membrane F60s, ref Lanese et al. (1989)): 73.0 mL/min
- Clin vivo, clearance as described in referenced publication ([4]; hemodialysis patients, membrane F80s, ref Lanese et al. (1989)): 85.2 mL/min
